This is an account of results in ChEMBL document CHEMBL1127541, “3,4-Dihydro-3-amino-2H-1-benzopyran derivatives as 5-HT1A receptor ligands and potential anxiolytic agents. 1. Synthesis and structure--activity relationship studies” (J Med Chem, 1994).

Molecules are shown by their SMILES. A value given as a limit tells only on which side of the number the result lay.

For one test, the target named is D(2) dopamine receptor (Bos taurus, UniProt P20288). Put plainly: Binding affinity against D2 receptor in calf caudate nucleus.
Test [1] deals with 5-hydroxytryptamine receptor 2A (Bos taurus, UniProt Q75Z89). Put plainly: Binding affinity towards 5-hydroxytryptamine 2 receptor in calf frontal cortex. In kind it is tissue-based.
The target of test [2] is T1, Alpha-2A adrenergic receptor (Bos taurus, UniProt Q28838).
T1 sequence (Q28838 whole entry): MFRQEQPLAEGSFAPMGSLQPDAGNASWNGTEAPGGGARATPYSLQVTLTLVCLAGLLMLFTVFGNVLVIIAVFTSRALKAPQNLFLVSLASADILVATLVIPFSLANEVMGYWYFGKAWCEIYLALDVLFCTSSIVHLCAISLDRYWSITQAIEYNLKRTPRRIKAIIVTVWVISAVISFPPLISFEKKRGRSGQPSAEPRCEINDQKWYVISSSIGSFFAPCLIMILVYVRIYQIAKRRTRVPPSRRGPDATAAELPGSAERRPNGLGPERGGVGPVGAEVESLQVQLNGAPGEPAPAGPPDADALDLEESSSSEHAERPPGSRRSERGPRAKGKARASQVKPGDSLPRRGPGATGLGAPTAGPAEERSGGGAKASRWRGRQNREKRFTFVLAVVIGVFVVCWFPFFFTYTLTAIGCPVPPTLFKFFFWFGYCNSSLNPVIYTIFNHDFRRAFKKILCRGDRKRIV
Description: Binding affinity against alpha-2 adrenergic receptor in calf frontal cortex. In kind it is tissue-based.

Test [3] has as its target 5-hydroxytryptamine receptor 1B (Rattus norvegicus, UniProt P28564). Description: Binding affinity for 5-hydroxytryptamine 1B receptor in rat cortex, striatum and globus pallidus. The class given is tissue-based.
The target of a further test is D(1A) dopamine receptor (Bos taurus, UniProt Q95136). Put plainly: Binding affinity towards dopamine receptor D1 in calf striatum. In kind it is tissue-based.
For test [4], the target named is T2, 5-hydroxytryptamine receptor 1A (Rattus norvegicus, UniProt P19327).
T2 sequence (P19327 whole entry): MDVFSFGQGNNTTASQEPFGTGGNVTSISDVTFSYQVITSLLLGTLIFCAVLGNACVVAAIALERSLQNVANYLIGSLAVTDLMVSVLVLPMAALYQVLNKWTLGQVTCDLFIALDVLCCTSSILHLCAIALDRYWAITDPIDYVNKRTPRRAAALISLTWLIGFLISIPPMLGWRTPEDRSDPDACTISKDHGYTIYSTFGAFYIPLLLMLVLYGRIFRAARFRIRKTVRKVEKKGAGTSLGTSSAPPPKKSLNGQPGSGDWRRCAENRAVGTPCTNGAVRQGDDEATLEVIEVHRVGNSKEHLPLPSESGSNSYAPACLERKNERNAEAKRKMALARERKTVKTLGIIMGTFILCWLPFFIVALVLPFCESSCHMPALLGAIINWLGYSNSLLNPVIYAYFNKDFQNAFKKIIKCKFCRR
Description: Binding affinity against 5-hydroxytryptamine 1A (5-HT1A) receptor in rat hippocampus membranes. The class given is cell membranes, Membrane.

The target in test [5] is T3, Alpha-1A adrenergic receptor (Bos taurus, UniProt P18130).
T3 sequence (P18130 whole entry): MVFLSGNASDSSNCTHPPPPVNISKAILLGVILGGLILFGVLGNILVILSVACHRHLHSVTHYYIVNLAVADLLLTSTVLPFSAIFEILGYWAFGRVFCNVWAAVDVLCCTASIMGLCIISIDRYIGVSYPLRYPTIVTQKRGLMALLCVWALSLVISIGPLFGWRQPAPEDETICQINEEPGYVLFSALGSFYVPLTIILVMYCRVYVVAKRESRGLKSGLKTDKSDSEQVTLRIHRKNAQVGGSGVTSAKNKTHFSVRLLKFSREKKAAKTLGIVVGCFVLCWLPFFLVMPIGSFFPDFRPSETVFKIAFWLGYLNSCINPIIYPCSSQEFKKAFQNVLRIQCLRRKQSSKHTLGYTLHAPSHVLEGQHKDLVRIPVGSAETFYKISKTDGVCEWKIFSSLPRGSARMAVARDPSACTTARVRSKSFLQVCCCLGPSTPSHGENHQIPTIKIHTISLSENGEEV
Put plainly: Binding affinity against alpha-1 adrenergic receptor in calf frontal cortex. The class given is tissue-based.

Chain of D(2) dopamine receptor (P20288 whole entry): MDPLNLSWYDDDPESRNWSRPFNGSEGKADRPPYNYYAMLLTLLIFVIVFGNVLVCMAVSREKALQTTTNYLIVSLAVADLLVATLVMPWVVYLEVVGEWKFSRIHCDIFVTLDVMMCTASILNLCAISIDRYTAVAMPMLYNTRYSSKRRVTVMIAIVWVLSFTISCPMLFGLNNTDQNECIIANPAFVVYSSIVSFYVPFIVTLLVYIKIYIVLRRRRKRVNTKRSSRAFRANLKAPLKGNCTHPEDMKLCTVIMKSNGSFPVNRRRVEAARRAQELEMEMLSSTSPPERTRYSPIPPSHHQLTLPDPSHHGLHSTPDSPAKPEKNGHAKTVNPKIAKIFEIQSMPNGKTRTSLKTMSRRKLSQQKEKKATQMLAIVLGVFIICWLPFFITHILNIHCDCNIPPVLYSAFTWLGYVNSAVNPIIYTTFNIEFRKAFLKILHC
Chain of 5-hydroxytryptamine receptor 2A (Q75Z89 whole entry): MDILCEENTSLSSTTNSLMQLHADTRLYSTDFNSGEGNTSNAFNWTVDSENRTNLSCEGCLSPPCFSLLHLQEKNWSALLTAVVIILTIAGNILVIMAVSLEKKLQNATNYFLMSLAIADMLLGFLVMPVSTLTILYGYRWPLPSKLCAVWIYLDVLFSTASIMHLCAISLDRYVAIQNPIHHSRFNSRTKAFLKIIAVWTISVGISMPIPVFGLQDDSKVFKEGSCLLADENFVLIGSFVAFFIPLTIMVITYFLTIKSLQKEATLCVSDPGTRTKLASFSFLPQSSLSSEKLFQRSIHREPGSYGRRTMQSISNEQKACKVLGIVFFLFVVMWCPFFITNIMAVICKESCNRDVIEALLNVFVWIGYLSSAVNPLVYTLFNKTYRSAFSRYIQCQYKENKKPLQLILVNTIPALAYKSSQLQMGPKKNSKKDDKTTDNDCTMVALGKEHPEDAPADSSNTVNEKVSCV
Chain of 5-hydroxytryptamine receptor 1B (P28564 whole entry): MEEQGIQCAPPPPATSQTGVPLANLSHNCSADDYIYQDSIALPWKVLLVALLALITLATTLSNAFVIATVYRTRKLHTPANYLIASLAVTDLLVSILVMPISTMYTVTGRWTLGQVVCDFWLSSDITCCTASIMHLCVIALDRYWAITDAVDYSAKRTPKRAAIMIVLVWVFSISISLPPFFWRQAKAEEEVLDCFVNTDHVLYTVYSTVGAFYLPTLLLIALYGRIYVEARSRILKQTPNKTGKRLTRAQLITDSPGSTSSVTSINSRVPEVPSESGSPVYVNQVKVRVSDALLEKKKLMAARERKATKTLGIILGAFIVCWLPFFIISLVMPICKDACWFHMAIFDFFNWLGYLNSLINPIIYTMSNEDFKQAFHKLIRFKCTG
Chain of D(1A) dopamine receptor (Q95136 whole entry): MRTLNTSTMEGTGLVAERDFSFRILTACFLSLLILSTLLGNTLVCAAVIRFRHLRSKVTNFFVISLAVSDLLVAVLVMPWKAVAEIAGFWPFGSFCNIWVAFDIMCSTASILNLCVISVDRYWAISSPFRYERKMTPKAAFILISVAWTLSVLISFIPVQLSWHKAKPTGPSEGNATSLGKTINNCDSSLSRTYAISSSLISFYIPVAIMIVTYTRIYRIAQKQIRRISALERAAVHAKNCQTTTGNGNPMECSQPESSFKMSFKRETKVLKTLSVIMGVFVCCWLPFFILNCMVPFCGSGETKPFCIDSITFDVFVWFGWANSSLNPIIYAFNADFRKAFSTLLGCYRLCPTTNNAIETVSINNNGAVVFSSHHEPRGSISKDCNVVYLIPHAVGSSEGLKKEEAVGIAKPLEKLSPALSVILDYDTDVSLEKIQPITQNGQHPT

As usually defined, the IC50 is the concentration at which inhibition is half-maximal. Low values mean higher potency, high ones lower potency. As for `CCCN(CCCON1C(=O)CC2(CCCC2)CC1=O)C1COc2cccc(OC)c2C1` (centres undefined), the IC50 stood at 0.02 µM at D(2) dopamine receptor; 4 µM in test [1]; 2 µM in test [2]; 40 µM in test [3]; 20 µM at D(1A) dopamine receptor; 0.001 µM in test [4]. Moreover, in test [5], the IC50 turned out to be 9 µM.

On to `CCCN(CCCCN1CCCCC1)C1COc2cccc(OC)c2C1` (centres undefined), for which the IC50 at D(2) dopamine receptor was 0.02 µM; in test [1], greater than 1000 µM; in test [2], 10 µM; in test [3], 50 µM; on D(1A) dopamine receptor it was 100 µM; in test [4] it was 0.002 µM. In test [5], this compound yielded an IC50 of 5 µM.

As for `CCCN(CCN1C(=O)CC2(CCCC2)CC1=O)C1COc2cccc(OC)c2C1` (centres undefined), the IC50 was 3 µM at D(2) dopamine receptor; greater than 1000 µM in test [1]; greater than 1000 µM in test [2]; greater than 1000 µM in test [3]; greater than 1000 µM on D(1A) dopamine receptor; 0.03 µM in test [4]. In test [5], this compound registered an IC50 greater than 1000 µM.

Consider `CCCN(CCCCN1C(=O)C2CCCC2C1=O)C1COc2cccc(OC)c2C1` (single isomer, unassigned; (-)), for which the IC50 at D(2) dopamine receptor stood at 0.01 µM; in test [1], 3 µM; in test [2], 5 µM; in test [3] it was 30 µM; at D(1A) dopamine receptor, 30 µM; in test [4], 0.001 µM. This compound also showed an IC50 in test [5] of 8 µM.

`CCCN(CCCCNS(=O)(=O)c1ccc(C)cc1)C1COc2cccc(OC)c2C1` (single isomer, unassigned; (-)): the IC50 at D(2) dopamine receptor was 0.06 µM; in test [1] it was 5 µM; in test [2], 2 µM; in test [3], 20 µM; on D(1A) dopamine receptor, 20 µM; in test [4], 0.02 µM. The same compound came in with an IC50 in test [5] of 7 µM.

With `CCCN(CCCCNS(=O)(=O)c1ccc(C)cc1)C1COc2cccc(OC)c2C1` (stereo in doubt; 15d), the IC50 at D(2) dopamine receptor turned out to be 0.2 µM; in test [1], 10 µM; in test [2] it was 10 µM; in test [3] it was 8 µM; at D(1A) dopamine receptor, 30 µM; in test [4], 0.002 µM. For the same compound, the half-maximal inhibitory concentration (IC50) in test [5] is 3 µM.

`CCCN(CCCCN1C(=O)C2CCCC2C1=O)C1COc2cccc(OC)c2C1` (single isomer, unassigned; (+)): the IC50 at D(2) dopamine receptor was determined as 0.1 µM; in test [1], 10 µM; in test [2] it was 5 µM; in test [3] it was 10 µM; on D(1A) dopamine receptor, 50 µM; in test [4], 0.008 µM. In addition, the IC50 in test [5] is 3 µM.

In the case of `CCCN(CCNS(=O)(=O)c1ccc(C)cc1)C1COc2cccc(OC)c2C1` (stereo in doubt; (-)-15b), the IC50 was 0.05 µM at D(2) dopamine receptor; 10 µM in test [1]; 10 µM in test [2]; greater than 1000 µM in test [3]; 60 µM on D(1A) dopamine receptor; 0.005 µM in test [4]. Further, the IC50 in test [5] was 1000 µM.

Regarding `CCCN(CCCCCN1C(=O)CC2(CCCC2)CC1=O)C1COc2cccc(OC)c2C1` (centres undefined), the IC50 is 60 µM at D(2) dopamine receptor; 3 µM in test [1]; 0.1 µM in test [2]; 20 µM in test [3]; 60 µM at D(1A) dopamine receptor; 0.001 µM in test [4]. In test [5], the IC50 worked out at 5 µM.

On to `CCCN(CCNC(C)=O)C1COc2cccc(OC)c2C1` (centres undefined), for which the IC50 was 0.6 µM at D(2) dopamine receptor; greater than 1000 µM in test [1]; 10 µM in test [2]; 60 µM in test [3]; greater than 1000 µM on D(1A) dopamine receptor; 0.04 µM in test [4]. Also, the IC50 in test [5] was greater than 1000 µM.

`CCCN(CCNS(=O)(=O)c1ccc(C)cc1)C1COc2cccc(OC)c2C1` (stereo in doubt; 15b): the half-inhibitory concentration (IC50) was 0.1 µM at D(2) dopamine receptor; 1 µM in test [1]; greater than 1000 µM in test [2]; greater than 1000 µM in test [3]; 50 µM at D(1A) dopamine receptor; 0.002 µM in test [4]. In test [5], the IC50 turned out to be 100 µM.

Regarding `CCCN(CCCCN1C(=O)CC2(CCCC2)CC1=O)C1COc2cccc(O)c2C1` (centres undefined), the IC50 came out at 0.008 µM at D(2) dopamine receptor; 4 µM in test [1]; 20 µM in test [2]; 30 µM in test [3]; 100 µM on D(1A) dopamine receptor; 0.001 µM in test [4]. Also, the IC50 in test [5] was determined as 10 µM.

On to `CCCN(CCCCn1c(=O)oc2cccnc21)C1COc2cccc(OC)c2C1` (centres undefined), for which the IC50 came to 0.1 µM on D(2) dopamine receptor; 6 µM in test [1]; 5 µM in test [2]; 1 µM in test [3]; 30 µM at D(1A) dopamine receptor; 0.005 µM in test [4]. For the same compound, the IC50 in test [5] worked out at 3 µM.

For the compound `CCCN(CCCN1C(=O)c2ccccc2C1=O)C1COc2cccc(OC)c2C1` (centres undefined), the IC50 at D(2) dopamine receptor amounted to 0.08 µM; in test [1], 8 µM; in test [2] it was 1 µM; in test [3] it was 3 µM; on D(1A) dopamine receptor, 40 µM; in test [4], 0.1 µM. In test [5], this compound gave an IC50 of 4 µM.

For `CCCN(CCC)C1COc2cccc(OC)c2C1` (stereo in doubt; (-)-4), the IC50 on D(2) dopamine receptor was 0.21 µM; in test [1] it was 4 µM; in test [2] it was 0.78 µM; in test [3] it was 1 µM; on D(1A) dopamine receptor, greater than 1000 µM; in test [4], 0.001 µM. The same compound had an IC50 in test [5] of 3.5 µM.

With `CCCN(CCC)C1COc2ccccc2C1` (centres undefined), the IC50 at D(2) dopamine receptor is 0.06 µM; in test [1], 80 µM; in test [2], 20 µM; in test [3], greater than 1000 µM; at D(1A) dopamine receptor it was greater than 1000 µM; in test [4], 0.4 µM. In addition, the IC50 in test [5] is greater than 1000 µM.

Consider `CCCN(CCCCN1C(=O)CC(C)(C)CC1=O)C1COc2cccc(OC)c2C1` (centres undefined), for which the IC50 was 0.04 µM on D(2) dopamine receptor; 6 µM in test [1]; 0.4 µM in test [2]; 10 µM in test [3]; 80 µM on D(1A) dopamine receptor; 0.004 µM in test [4]. In test [5], this compound registered an IC50 of 6 µM.

Regarding `COc1cccc2c1CC(N1CCCC1)CO2` (centres undefined), the IC50 at D(2) dopamine receptor stood at 2.5 µM; in test [1], 60 µM; in test [2], 3 µM; in test [3] it was 100 µM; on D(1A) dopamine receptor it was 1000 µM; in test [4] it was 0.007 µM. In test [5], this compound displayed an IC50 of 40 µM.

With `CCCN(CCC)C1COc2cccc(OC)c2C1` (stereo in doubt; 4), the IC50 at D(2) dopamine receptor is 0.05 µM; in test [1] it was 60 µM; in test [2], 4 µM; in test [3], 20 µM; on D(1A) dopamine receptor, 100 µM; in test [4] it was 0.02 µM. The IC50 in test [5] was found to be 80 µM.

For `COc1cccc2c1CC(NCCCCN1C(=O)CC3(CCCC3)CC1=O)CO2` (centres undefined), the IC50 on D(2) dopamine receptor came out at 0.9 µM; in test [1] it was 1 µM; in test [2] it was 20 µM; in test [3], 20 µM; at D(1A) dopamine receptor it was 20 µM; in test [4], 0.02 µM. In test [5], this compound came in with an IC50 of 10 µM.

As to `CCCN(CCN1C(=O)c2ccccc2C1=O)C1COc2cccc(OC)c2C1` (centres undefined), the IC50 at D(2) dopamine receptor was 10 µM; in test [1], greater than 100 µM; in test [2] it was greater than 1000 µM; in test [3], greater than 1000 µM; on D(1A) dopamine receptor, greater than 1000 µM; in test [4], 0.8 µM. Also, the IC50 in test [5] was greater than 1000 µM.

Regarding `CCC[N+](C)(CCCCN1C(=O)CC2(CCCC2)CC1=O)C1COc2cccc(OC)c2C1` (centres undefined), the IC50 was 1 µM at D(2) dopamine receptor; greater than 1000 µM in test [1]; 1000 µM in test [2]; greater than 1000 µM in test [3]; 100 µM at D(1A) dopamine receptor; 0.3 µM in test [4]. In addition, in test [5], the IC50 turned out to be 70 µM.
